Assay results published in BigSolDB 2.1.

COc1cc([N+](=O)[O-])ccc1N
solubility (mole fraction)
Settings | 278.15 K | 283.15 K | 288.15 K | 293.15 K | 298.15 K | 303.15 K | 308.15 K | 313.15 K | 318.15 K | 323.15 K
in 1,4-dioxane | – | – | 0.0402 | 0.0468 | 0.0556 | 0.0652 | 0.0775 | 0.0925 | 0.111 | 0.133
in DMSO | – | – | – | 0.235 | 0.249 | 0.264 | 0.281 | 0.3 | 0.321 | 0.344
in NMP | 0.256 | 0.272 | 0.287 | 0.303 | 0.321 | 0.339 | 0.359 | 0.38 | 0.402 | 0.426
in acetonitrile | 0.0118 | 0.0141 | 0.0175 | 0.0213 | 0.0269 | 0.0345 | 0.0433 | 0.0547 | 0.0683 | 0.0872
in ethanol | 0.00263 | 0.00307 | 0.00363 | 0.00438 | 0.00534 | 0.00636 | 0.0078 | 0.00978 | 0.0121 | 0.015
in ethyl acetate | 0.0186 | 0.0227 | 0.0269 | 0.0326 | 0.0398 | 0.0486 | 0.0596 | 0.0716 | 0.0854 | 0.103
in ethylene glycol | 0.0017 | 0.00201 | 0.00243 | 0.00284 | 0.00345 | 0.00424 | 0.00527 | 0.00643 | 0.00796 | 0.00973
in methanol | 0.00238 | 0.0028 | 0.00333 | 0.00392 | 0.00466 | 0.00565 | 0.00682 | 0.00844 | 0.0104 | 0.0129
in n-butanol | 0.00135 | 0.00166 | 0.00202 | 0.00248 | 0.00304 | 0.00371 | 0.00457 | 0.0057 | 0.0072 | 0.00886
in n-propanol | 0.00199 | 0.00239 | 0.0029 | 0.0035 | 0.00423 | 0.00512 | 0.00616 | 0.00738 | 0.00876 | 0.0104
in water | 4e-06 | 6e-06 | 7e-06 | 9e-06 | 1.3e-05 | 1.7e-05 | 2.4e-05 | 3.2e-05 | 4.2e-05 | 5.5e-05
